These results are taken from US11571416B2, “Amodiaquine analogs and methods of uses thereof” (priority 2017, dated 2023).

SMILES strings stand for the structures.

The IC50 is the concentration needed to halve the response being measured. Usually CC50 stands for the concentration that lowers cell viability or growth by half. Low readings indicate harm at low concentration, high ones better tolerance by the cells. For orientation: half-life means the time in which the quantity being followed falls by half.

Series [1] has as its system EBOV-GFP (recombinant Ebolavirus encoding a GFP reporter gene). The series can be described thus: microbe, parasite or virus in culture. The format is cell-based. The following applies: for IC50: Orthoebolavirus.
A short description of series [2]: Cytotoxicity, CellTiter-Glo Luminescent Cell Viability Assay. Particulars: human, Huh7 cells.
For another series, the system named is Huh7 cells. The series is described as above. The following applies: Table 2, 24 h incubation.
The conditions of series [3]: in humans, metabolite formed by CYP2C8; cited from earlier work.
The subject of the next series is Ebolavirus. Particulars: cited from earlier work.

For the molecule `CCN(Cc1cc(Nc2ccnc3cc(Cl)ccc23)ccc1O)C(C)C` [Compound 11, 4-(7-chloroquinolin-4-ylamino)-2-(ethylisopropylamino)methylphenol], the Selectivity index in series [1] is on record as 41. In addition, the IC50 in series [1] (Huh-7) worked out at 1460 nM; in series [1] (Huh-7, 24 h), 1460 ± 150 nM. The same molecule came in with a half-maximal cytotoxic concentration (CC50) at 24 h in series [2] of 60500 nM.

On to `CCCN(C)Cc1cc(Nc2ccnc3cc(Cl)ccc23)ccc1O` [Compound 14, 4-(7-chloroquinolin-4-ylamino)-2-(methylpropylamino)methylphenol], for which, in series [1], the Selectivity index is more than 82. For the same molecule, the half-inhibitory concentration (IC50) in series [1] (Huh-7) is 1220 nM; in series [1] (Huh-7, 24 h), 1220 ± 110 nM. Besides, in series [2], the half-maximal cytotoxic concentration (CC50) at 24 h is more than 100000 nM.

In the case of `CN(Cc1cc(Nc2ccnc3cc(Cl)ccc23)ccc1O)C(C)(C)C` [Compound 15, 4-(7-chloroquinolin-4-ylamino)-2-(tert-butylmethylamino)methylphenol], the Selectivity index in series [1] stood at 33. The concentration for half-maximal inhibition (IC50) stood at 1280 nM in series [1] (Huh-7) and 1280 ± 70 nM in series [1] (Huh-7, 24 h). This molecule came in with a CC50 at 24 h in series [2] of 41800 nM.

With `CCN(CC)Cc1cc(Nc2ccnc3cc(I)ccc23)ccc1O` [Compound 18, 4-(7-iodoquinolin-4-ylamino)-2-diethylaminomethylphenol], in series [1], the Selectivity index is recorded as more than 156 and the “fold potency relative to amodiaquine” value came to 3.3 fold. Moreover, in series [1] (Huh-7), the IC50 turned out to be 640 nM. Moreover, the IC50 in series [1] (Huh-7, 24 h) worked out at 640 ± 50 nM. In series [2], this molecule registered a CC50 at 24 h of more than 100000 nM. The CC50 with Huh7 cells was more than 100000 nM.

On to `CCN(CC)Cc1cc(Nc2ccnc3cc(Cl)ccc23)cc(-c2ccc(Cl)cc2)c1O` [Compound 20, 6-(4-chlorophenyl)-4-(7-chloroquinolin-4-ylamino)-2-diethylaminomethylphenol], for which the Selectivity index in series [1] is on record as 15. In series [1], the “fold potency relative to amodiaquine” value was found to be 1.6 fold. Besides, the IC50 in series [1] (Huh-7) was 1310 nM; in series [1] (Huh-7, 24 h), 1310 ± 100 nM. Also, the CC50 at 24 h in series [2] was 19500 nM.

`Oc1ccc(Nc2ccnc3cc(Cl)ccc23)cc1CN1CCCC1` [Compound 21, 4-(7-chloroquinolin-4-ylamino)-2-pyrrolidinylmethylphenol]: the Selectivity index in series [1] is reported as 30. Besides, the IC50 in series [1] (Huh-7) was determined as 1090 nM; in series [1] (Huh-7, 24 h), 1090 nM. In series [2], this molecule had a CC50 at 24 h of 33200 nM.

On to `CCCCCCNCc1cc(Nc2ccnc3cc(Cl)ccc23)ccc1O` [Compound 23, 4-(7-chloroquinolin-4-ylamino)-2-hexylaminomethylphenol], for which, in series [1], the Selectivity index is 18. Also, the IC50 in series [1] (Huh-7) turned out to be 290 nM; in series [1] (Huh-7, 24 h), 290 ± 30 nM. Besides, it took 5180 nM to reach half-maximal cytotoxicity in series [2] (CC50 at 24 h).

In the case of `CCCCN(C)Cc1cc(Nc2ccnc3cc(Cl)ccc23)ccc1O` [Compound 25, 4-(7-chloroquinolin-4-ylamino)-2-(butylmethylamino)methylphenol], the Selectivity index in series [1] came to 77. The IC50 in series [1] (Huh-7) was 860 nM; in series [1] (Huh-7, 24 h), 860 ± 80 nM. The molecule also returned a CC50 at 24 h in series [2] of 65900 nM.

For the molecule `CCCN(CCC)Cc1cc(Nc2ccnc3cc(Cl)ccc23)ccc1O` [Compound 26, 4-(7-chloroquinolin-4-ylamino)-2-dipropylaminomethylphenol], the Selectivity index in series [1] was more than 106. Besides, the IC50 stood at 940 nM in series [1] (Huh-7) and 940 ± 80 nM in series [1] (Huh-7, 24 h). The CC50 at 24 h in series [2] was more than 100000 nM.

For `CCCCN(CCCC)Cc1cc(Nc2ccnc3cc(Cl)ccc23)ccc1O` [Compound 28, 4-(7-chloroquinolin-4-ylamino)-2-dibutylaminomethylphenol], the Selectivity index in series [1] is listed as more than 139. For the same molecule, the IC50 in series [1] (Huh-7) is 720 nM; in series [1] (Huh-7, 24 h), 720 ± 80 nM. This molecule also had a CC50 at 24 h in series [2] of more than 100000 nM. This molecule also showed a CC50 with Huh7 cells of more than 100000 nM.

On to `CCCN(CC)Cc1cc(Nc2ccnc3cc(Cl)ccc23)ccc1O` [Compound 29, 4-(7-chloroquinolin-4-ylamino)-2-(ethylpropylamino)methylphenol], for which the Selectivity index in series [1] was more than 72. Also, the IC50 stood at 1390 nM in series [1] (Huh-7) and 1390 ± 130 nM in series [1] (Huh-7, 24 h). For the same molecule, in series [2], the 50% cytotoxic concentration (CC50) at 24 h is more than 100000 nM.

In the case of `CN(C)Cc1cc(Nc2ccnc3cc(I)ccc23)ccc1O` [Compound 30, 4-(7-iodoquinolin-4-ylamino)-2-dimethylaminomethylphenol], the Selectivity index in series [1] is given as more than 145. Also, the IC50 in series [1] (Huh-7) came to 690 nM; in series [1] (Huh-7, 24 h) it was 690 ± 80 nM. In series [2], the CC50 at 24 h was more than 100000 nM.

Take `CCN(C)Cc1cc(Nc2ccnc3cc(I)ccc23)ccc1O` [Compound 31, 4-(7-iodoquinolin-4-ylamino)-2-ethylmethylaminomethylphenol]: the Selectivity index in series [1] is more than 161. For the same molecule, the IC50 in series [1] (Huh-7) turned out to be 620 nM; in series [1] (Huh-7, 24 h), 620 ± 60 nM. In addition, in series [2], the CC50 at 24 h is more than 100000 nM.

Turning to `CC(C)N(C)Cc1cc(Nc2ccnc3cc(I)ccc23)ccc1O` [Compound 32, 4-(7-iodoquinolin-4-ylamino)-2-isopropylmethylaminomethylphenol], in series [1], the Selectivity index amounted to 132. Also, the IC50 in series [1] (Huh-7) is 290 nM; in series [1] (Huh-7, 24 h) it was 290 ± 40 nM. The CC50 at 24 h in series [2] turned out to be 38400 nM.

In the case of `CN(Cc1cc(Nc2ccnc3cc(I)ccc23)ccc1O)C(C)(C)C` [Compound 33, 4-(7-iodoquinolin-4-ylamino)-2-tert-butylmethylaminomethylphenol], the Selectivity index in series [1] turned out to be 108. The IC50 came out at 300 nM in series [1] (Huh-7) and 300 ± 40 nM in series [1] (Huh-7, 24 h). The same molecule had a half-maximal cytotoxic concentration (CC50) at 24 h in series [2] of 32300 nM.

Regarding `CCCN(C)Cc1cc(Nc2ccnc3cc(I)ccc23)ccc1O` [Compound 34, 4-(7-iodoquinolin-4-ylamino)-2-methylpropylaminomethylphenol], the Selectivity index in series [1] is given as more than 233. For the same molecule, the IC50 in series [1] (Huh-7) turned out to be 430 nM; in series [1] (Huh-7, 24 h), 430 ± 60 nM. Besides, the CC50 at 24 h in series [2] was more than 100000 nM.

Regarding `CCCCN(C)Cc1cc(Nc2ccnc3cc(I)ccc23)ccc1O` [Compound 35, 4-(7-iodoquinolin-4-ylamino)-2-butylmethylaminomethylphenol], in series [1], the Selectivity index amounted to 150. The IC50 in series [1] (Huh-7) worked out at 440 nM; in series [1] (Huh-7, 24 h) it was 440 ± 40 nM. The CC50 at 24 h in series [2] was 66100 nM.

As for `CCCCCN(C)Cc1cc(Nc2ccnc3cc(I)ccc23)ccc1O` [Compound 36, 4-(7-iodoquinolin-4-ylamino)-2-methylpentylaminomethylphenol], the Selectivity index in series [1] is given as more than 270. Further, the IC50 turned out to be 370 nM in series [1] (Huh-7) and 370 ± 40 nM in series [1] (Huh-7, 24 h). Also, the CC50 at 24 h in series [2] is more than 100000 nM.

As for `CCCCCCN(C)Cc1cc(Nc2ccnc3cc(I)ccc23)ccc1O` [Compound 37, 4-(7-iodoquinolin-4-ylamino)-2-hexylmethylaminomethylphenol], the Selectivity index in series [1] was more than 256. Besides, the IC50 in series [1] (Huh-7) amounted to 390 nM; in series [1] (Huh-7, 24 h), 390 ± 20 nM. In series [2], the cytotoxic concentration (CC50) at 24 h was more than 100000 nM.

On to `CCCCCCCCN(C)Cc1cc(Nc2ccnc3cc(I)ccc23)ccc1O` [Compound 38, 4-(7-iodoquinolin-4-ylamino)-2-methyloctylaminomethylphenol], for which, in series [1], the Selectivity index is on record as more than 385. The half-inhibitory concentration (IC50) in series [1] (Huh-7) was determined as 260 nM; in series [1] (Huh-7, 24 h) it was 260 ± 60 nM. Besides, the CC50 at 24 h in series [2] is more than 100000 nM.

On to `CCN(CCO)Cc1cc(Nc2ccnc3cc(I)ccc23)ccc1O` [Compound 39, 4-(7-iodoquinolin-4-ylamino)-2-ethyl(2-hydroxyethyl)aminomethylphenol], for which the Selectivity index in series [1] is given as more than 244. The IC50 in series [1] (Huh-7) is 410 nM; in series [1] (Huh-7, 24 h), 410 ± 50 nM. In addition, the CC50 at 24 h in series [2] is more than 100000 nM.

Turning to `CCCN(CC)Cc1cc(Nc2ccnc3cc(I)ccc23)ccc1O` [Compound 40, 4-(7-iodoquinolin-4-ylamino)-2-ethylpropylaminomethylphenol], the Selectivity index in series [1] is more than 278. Further, the IC50 in series [1] (Huh-7) stood at 360 nM; in series [1] (Huh-7, 24 h), 360 ± 40 nM. Besides, the CC50 at 24 h in series [2] was more than 100000 nM.

`CCCCN(CC)Cc1cc(Nc2ccnc3cc(I)ccc23)ccc1O` [Compound 41, 4-(7-iodoquinolin-4-ylamino)-2-ethylbutylaminomethylphenol]: the Selectivity index in series [1] worked out at 147. Moreover, the IC50 in series [1] (Huh-7) came to 410 nM; in series [1] (Huh-7, 24 h), 410 ± 40 nM. The CC50 at 24 h in series [2] came out at 60400 nM.

As to `Oc1ccc(Nc2ccnc3cc(I)ccc23)cc1CN1CCCC1` [Compound 42, 4-(7-iodoquinolin-4-ylamino)-2-(1-pyrrolidinylmethyl)phenol], the Selectivity index in series [1] is listed as 54. For the same molecule, the IC50 in series [1] (Huh-7) is 660 nM; in series [1] (Huh-7, 24 h), 660 ± 50 nM. Also, the midpoint of cytotoxicity in series [2], the CC50 at 24 h, lay at 35300 nM.

On to `Oc1ccc(Nc2ccnc3cc(I)ccc23)cc1CN1CCCCC1` [Compound 43, 4-(7-iodoquinolin-4-ylamino)-2-(1-piperidinylmethyl)phenol], for which the Selectivity index in series [1] is reported as more than 270. Further, the IC50 in series [1] (Huh-7) stood at 370 nM; in series [1] (Huh-7, 24 h), 370 ± 70 nM. Further, in series [2], the CC50 at 24 h is more than 100000 nM.

As for `Oc1ccc(Nc2ccnc3cc(I)ccc23)cc1CN1CCOCC1` [Compound 44, 4-(7-iodoquinolin-4-ylamino)-2-(4-morpholinylmethyl)phenol], the Selectivity index in series [1] is more than 63. Moreover, the IC50 was found to be 1590 nM in series [1] (Huh-7) and 1590 ± 120 nM in series [1] (Huh-7, 24 h). In series [2], this molecule showed a CC50 at 24 h of more than 100000 nM.

As to `Oc1ccc(Nc2ccnc3cc(I)ccc23)cc1CN1CCSCC1` [Compound 45, 4-(7-iodoquinolin-4-ylamino)-2-(4-thiamorpholinylmethyl)phenol], the Selectivity index in series [1] was more than 51. The half-maximal inhibitory concentration (IC50) in series [1] (Huh-7) is 1950 nM; in series [1] (Huh-7, 24 h) it was 1950 ± 220 nM. In addition, the CC50 at 24 h in series [2] was more than 100000 nM.

With `CCNCc1cc(Nc2ccnc3cc(Cl)ccc23)ccc1O` [desethyl-amodiaquine], the half-life in series [3] is 220 to 432 h. Moreover, the “anti-Ebolavirus activity (previous reports)” value (from here on “anti-Ebolavirus activity”) in the series with Ebolavirus is listed as “potent anti-Ebolavirus activity”.

`COc1ccc2nc3cc(Cl)ccc3c(Nc3cc(CN4CCCC4)c(O)c(CN4CCCC4)c3)c2n1` [pyronaridine]: in the series on Ebolavirus, the “anti-Ebolavirus activity” value is “anti-Ebolavirus activities”.

For the molecule `CCN(CC)CCCC(C)Nc1c2ccc(Cl)cc2nc2ccc(OC)cc12` (centres unmarked) [quinacrine], the “anti-Ebolavirus activity” value with Ebolavirus is listed as “anti-Ebolavirus activities”.
